From PubChem BioAssay AID1919002 (Molecular Pharmacology Branch, DTP, NCI, 2023)

Test system: 743489-274-T-PDC complex spheroid growth
Assay: Anticancer human tumor 743489-274-T-PDC patient-derived renal cell carcinoma cell line growth inhibition [AhR]
Details: for IC50: curve of first compound; for viability, T/C: stronger effect = lower value
Summary of the method: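 Spheroids combined tumor cells with HUVEC endothelial cells and human MSCs as stroma. AhR antagonists were paired with standard or investigational drugs, each dosed in half-log steps down from near clinical Cmax, or from 10 microM where Cmax was unknown.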

[1] = second compound 0.1 µM, first compound 0.000949 µM
[2] = second compound 0.1 µM, first compound 0.003 µM
[3] = second compound 0.1 µM, first compound 0.00949 µM
[4] = second compound 0.1 µM, first compound 0.03 µM
[5] = second compound 0.1 µM, first compound 0.0949 µM
[6] = second compound 0.1 µM, first compound 0.3 µM
[7] = second compound 0.316 µM, first compound 0.000949 µM
[8] = second compound 0.316 µM, first compound 0.003 µM
[9] = second compound 0.316 µM, first compound 0.00949 µM
[10] = second compound 0.316 µM, first compound 0.03 µM
[11] = second compound 0.316 µM, first compound 0.0949 µM
[12] = second compound 0.316 µM, first compound 0.3 µM
[13] = second compound 1 µM, first compound 0.000949 µM
[14] = second compound 1 µM, first compound 0.003 µM
[15] = second compound 1 µM, first compound 0.00949 µM
[16] = second compound 1 µM, first compound 0.03 µM
[17] = second compound 1 µM, first compound 0.0949 µM
[18] = second compound 1 µM, first compound 0.3 µM
[19] = second compound 3.16 µM, first compound 0.000949 µM
[20] = second compound 3.16 µM, first compound 0.003 µM
[21] = second compound 3.16 µM, first compound 0.00949 µM
[22] = second compound 3.16 µM, first compound 0.03 µM
[23] = second compound 3.16 µM, first compound 0.0949 µM
[24] = second compound 3.16 µM, first compound 0.3 µM
[25] = second compound 10 µM, first compound 0.000949 µM
[26] = second compound 10 µM, first compound 0.003 µM
[27] = second compound 10 µM, first compound 0.00949 µM
[28] = second compound 10 µM, first compound 0.03 µM
[29] = second compound 10 µM, first compound 0.0949 µM
[30] = second compound 10 µM, first compound 0.3 µM
[31] = second compound 0.1 µM, first compound 0.0316 µM
[32] = second compound 0.1 µM, first compound 0.1 µM
[33] = second compound 0.1 µM, first compound 0.316 µM
[34] = second compound 0.1 µM, first compound 1 µM
[35] = second compound 0.1 µM, first compound 3.16 µM
[36] = second compound 0.1 µM, first compound 10 µM
[37] = second compound 0.316 µM, first compound 0.0316 µM
[38] = second compound 0.316 µM, first compound 0.1 µM
[39] = second compound 0.316 µM, first compound 0.316 µM
[40] = second compound 0.316 µM, first compound 1 µM
[41] = second compound 0.316 µM, first compound 3.16 µM
[42] = second compound 0.316 µM, first compound 10 µM
[43] = second compound 1 µM, first compound 0.0316 µM
[44] = second compound 1 µM, first compound 0.1 µM
[45] = second compound 1 µM, first compound 0.316 µM
[46] = second compound 1 µM, first compound 1 µM
[47] = second compound 1 µM, first compound 3.16 µM
[48] = second compound 1 µM, first compound 10 µM
[49] = second compound 3.16 µM, first compound 0.0316 µM
[50] = second compound 3.16 µM, first compound 0.1 µM
[51] = second compound 3.16 µM, first compound 0.316 µM
[52] = second compound 3.16 µM, first compound 1 µM
[53] = second compound 3.16 µM, first compound 3.16 µM
[54] = second compound 3.16 µM, first compound 10 µM
[55] = second compound 10 µM, first compound 0.0316 µM
[56] = second compound 10 µM, first compound 0.1 µM
[57] = second compound 10 µM, first compound 0.316 µM
[58] = second compound 10 µM, first compound 1 µM
[59] = second compound 10 µM, first compound 3.16 µM
[60] = second compound 10 µM, first compound 10 µM
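Further: spheroids exposed to agents for 7 days before readout.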
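Wherever viability, T/C is given: 100% = DMSO vehicle control wells.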

## CC(C)CC(NC(=O)C(Cc1ccccc1)NC(=O)c1cnccn1)B(O)O (stereo not given) + Cc1ccccc1N=Nc1ccc(NC(=O)c2ccnn2C)c(C)c1
Second compound 0.1 µM
  IC50: 21.8 nM
Second compound 0.316 µM
  IC50: 24.8 nM
Second compound 1 µM
  IC50: 28.2 nM
Second compound 3.16 µM
  IC50: 22.2 nM
Second compound 10 µM
  IC50: 21.2 nM
[1]
  viability, T/C: 99.1%
[2]
  viability, T/C: 115%
[3]
  viability, T/C: 97.4%
[4]
  viability, T/C: 31.5%
[5]
  viability, T/C: 13.8%
[6]
  viability, T/C: 4.06%
[7]
  viability, T/C: 83.8%
[8]
  viability, T/C: 98.5%
[9]
  viability, T/C: 100%
[10]
  viability, T/C: 41.1%
[11]
  viability, T/C: 16.2%
[12]
  viability, T/C: 2.22%
[13]
  viability, T/C: 88.9%
[14]
  viability, T/C: 111%
[15]
  viability, T/C: 113%
[16]
  viability, T/C: 46.9%
[17]
  viability, T/C: 15.2%
[18]
  viability, T/C: 5%
[19]
  viability, T/C: 89.1%
[20]
  viability, T/C: 94.8%
[21]
  viability, T/C: 94.2%
[22]
  viability, T/C: 34.9%
[23]
  viability, T/C: 17.3%
[24]
  viability, T/C: 2.43%
[25]
  viability, T/C: 77.4%
[26]
  viability, T/C: 97.6%
[27]
  viability, T/C: 89.4%
[28]
  viability, T/C: 33.6%
[29]
  viability, T/C: 10.4%
[30]
  viability, T/C: 4.58%

## CCc1c2c(nc3ccc(O)cc13)-c1cc3c(c(=O)n1C2)COC(=O)[C@]3(O)CC + Cc1ccccc1N=Nc1ccc(NC(=O)c2ccnn2C)c(C)c1
Second compound 0.1 µM
  IC50: > 300 nM
Second compound 0.316 µM
  IC50: > 300 nM
Second compound 1 µM
  IC50: 238 nM
Second compound 3.16 µM
  IC50: > 300 nM
Second compound 10 µM
  IC50: 86.2 nM
[1]
  viability, T/C: 79.7%
[2]
  viability, T/C: 94.1%
[3]
  viability, T/C: 89.5%
[4]
  viability, T/C: 76.1%
[5]
  viability, T/C: 59.2%
[6]
  viability, T/C: 55.1%
[7]
  viability, T/C: 83.4%
[8]
  viability, T/C: 89.2%
[9]
  viability, T/C: 94.8%
[10]
  viability, T/C: 71.2%
[11]
  viability, T/C: 54.9%
[12]
  viability, T/C: 50%
[13]
  viability, T/C: 90.2%
[14]
  viability, T/C: 93.2%
[15]
  viability, T/C: 79.6%
[16]
  viability, T/C: 72.1%
[17]
  viability, T/C: 60%
[18]
  viability, T/C: 47.3%
[19]
  viability, T/C: 85.1%
[20]
  viability, T/C: 88.9%
[21]
  viability, T/C: 80.7%
[22]
  viability, T/C: 62.8%
[23]
  viability, T/C: 57.8%
[24]
  viability, T/C: 50.2%
[25]
  viability, T/C: 85.4%
[26]
  viability, T/C: 84.7%
[27]
  viability, T/C: 76.8%
[28]
  viability, T/C: 60%
[29]
  viability, T/C: 50.2%
[30]
  viability, T/C: 44.7%

## Nc1ccccc1NC(=O)c1ccc(CNC(=O)OCc2cccnc2)cc1 + Cc1ccccc1N=Nc1ccc(NC(=O)c2ccnn2C)c(C)c1
Second compound 0.1 µM
  IC50: 4620 nM
Second compound 0.316 µM
  IC50: 2640 nM
Second compound 1 µM
  IC50: 3670 nM
Second compound 3.16 µM
  IC50: 2630 nM
Second compound 10 µM
  IC50: 2260 nM
[31]
  viability, T/C: 101%
[32]
  viability, T/C: 96.6%
[33]
  viability, T/C: 95.9%
[34]
  viability, T/C: 80.2%
[35]
  viability, T/C: 63%
[36]
  viability, T/C: 25.4%
[37]
  viability, T/C: 99.9%
[38]
  viability, T/C: 99.7%
[39]
  viability, T/C: 84%
[40]
  viability, T/C: 79.7%
[41]
  viability, T/C: 42.7%
[42]
  viability, T/C: 23.8%
[43]
  viability, T/C: 89.8%
[44]
  viability, T/C: 95%
[45]
  viability, T/C: 88.2%
[46]
  viability, T/C: 74.3%
[47]
  viability, T/C: 54.7%
[48]
  viability, T/C: 24.5%
[49]
  viability, T/C: 93.3%
[50]
  viability, T/C: 98%
[51]
  viability, T/C: 88.3%
[52]
  viability, T/C: 70%
[53]
  viability, T/C: 47%
[54]
  viability, T/C: 28.5%
[55]
  viability, T/C: 86.9%
[56]
  viability, T/C: 95.9%
[57]
  viability, T/C: 88.4%
[58]
  viability, T/C: 66.2%
[59]
  viability, T/C: 44.4%
[60]
  viability, T/C: 28.6%

## O=C(c1cc(Cc2n[nH]c(=O)c3ccccc23)ccc1F)N1CCN(C(=O)C2CC2)CC1 + Cc1ccccc1N=Nc1ccc(NC(=O)c2ccnn2C)c(C)c1
Second compound 0.1 µM
  IC50: > 10000 nM
Second compound 0.316 µM
  IC50: > 10000 nM
Second compound 1 µM
  IC50: > 10000 nM
Second compound 3.16 µM
  IC50: > 10000 nM
Second compound 10 µM
  IC50: > 10000 nM
[31]
  viability, T/C: 104%
[32]
  viability, T/C: 96.2%
[33]
  viability, T/C: 91.8%
[34]
  viability, T/C: 90%
[35]
  viability, T/C: 108%
[36]
  viability, T/C: 94.6%
[37]
  viability, T/C: 94.4%
[38]
  viability, T/C: 94.4%
[39]
  viability, T/C: 94.3%
[40]
  viability, T/C: 90.2%
[41]
  viability, T/C: 91.7%
[42]
  viability, T/C: 94.2%
[43]
  viability, T/C: 97%
[44]
  viability, T/C: 95.2%
[45]
  viability, T/C: 111%
[46]
  viability, T/C: 96.1%
[47]
  viability, T/C: 93.8%
[48]
  viability, T/C: 83.3%
[49]
  viability, T/C: 97%
[50]
  viability, T/C: 87.5%
[51]
  viability, T/C: 91.4%
[52]
  viability, T/C: 90.6%
[53]
  viability, T/C: 101%
[54]
  viability, T/C: 99.3%
[55]
  viability, T/C: 92.4%
[56]
  viability, T/C: 110%
[57]
  viability, T/C: 106%
[58]
  viability, T/C: 96.8%
[59]
  viability, T/C: 92.7%
[60]
  viability, T/C: 85.4%
